Patent US8916583B2, “Therapeutic compositions for intranasal administration of zolpidem” (Renascence Therapeutics Limited, priority 2012, dated 2014)
Structures can show the parent of a compound that is named as a salt.

Tests used:
[1] = cited from earlier work
[2] = cited from earlier work; remark: listed apart in the source
[3] = Pharmacokinetic study in beagle dogs; conditions: for CL/F / Rel F(5 mg oral) / Tmax: beagle dogs; for Rel F(5 mg oral): relative to 5 mg oral; for AUC(0-inf) / AUC(0-t) / Cmax / MRT / half-life / Tmax: both, beagle, dog, plasma
Method: Eight beagle dogs (4 male and 4 female) participated in the study. […] Water was given ad libitum throughout the study. Food was provided 4 hours post-dose. Blood samples were collected at pre-dose (0 min) and at 3, 6, 9, 12, 15, 20, 30, 45 minutes; and at 1, 1.5, 2, 3, 4, 6, 8, 24 hours post-dose. After plasma-separation process, the samples were analyzed by a validated LC-MS/MS method.

[4] = tested on: plasma proteins; conditions: cited from earlier work
[5] = tested on: toad palate; test: Nasal ciliotoxicity evaluation, in-situ toad palate model; type: in vivo; design: key to Ciliotoxicity: no effect: cilia on the mucosa was intact, dense and beating actively; mild: less than 25% ciliostasis; moderate: cilia was disarranged or only partial cilia left; all cilia lost and apical cell border was severe deformed; conditions: 0.2 ml, 4 h, light microscope 400×
Method: The nasal ciliotoxicity of zolpidem tartrate, solubilizing agents and several nasal solution formulations were investigated using an in-situ toad palate model. Briefly, 0.2 ml test formulations were administrated on a toad palate. […] The mucocilia was examined with a light microscope at enlargements of 400× (n=3˜6). Saline and a typical nasal mucociliary toxic agent—sodium deoxycholatee—were used as a negative and positive control, respectively. Study protocol was illustrated in Table 11, and the degree of ciliotoxicity caused by the test formulations was coarse classified as follows: “no effect”: cilia on the mucosa was intact, dense and beating actively; “mild”: less than 25% ciliostasis; “moderate”: cilia was disarranged or only partial cilia left; “severe”: all cilia lost and apical cell border was severe deformed.

[6] = intranasal administration (ZLP-B01), 1.25 mg/dog
[7] = intranasal administration (ZLP-B01), 2.5 mg/dog
[8] = intranasal administration (ZLP-B01), 5 mg/dog

Cc1ccc(-c2nc3ccc(C)cn3c2CC(=O)N(C)C)cc1 [Zolpidem tartrate]
aqueous solubility ([1]; at 20° C.): about 23 mg/ml | solubility in water ([1]; water): slightly soluble

Cc1ccc(-c2nc3ccc(C)cn3c2CC(=O)N(C)C)cc1 [Zolpidem, N,N,6-trimethyl-2-(4-methylphenyl)-imidazo[1,2-a]pyridine-3-acetamide]
time to peak plasma concentrations ([2]; after oral doses): ≤ 3 h | elimination half-life ([2]; in vivo): about 2.5 hours | absolute bioavailability ([2]; oral, first-pass metabolism): about 70% | CL/F [3, 6]: 110 ± 41 L/h | Rel F(5 mg oral) [3, 6]: 167% | CL/F [3, 7]: 144 ± 76 L/h | Rel F(5 mg oral) [3, 7]: 145% | CL/F [3, 8]: 181 ± 137 L/h | Rel F(5 mg oral) [3, 8]: 124% | CL/F ([3]; oral administration (marketed tablet, Stilnox), 5 mg/dog): 204 ± 96 L/h | CL/F ([3]; oral administration (marketed tablet, Stilnox), 10 mg/dog): 110 ± 69 L/h | AUC(0-inf) ([3]; inhaled or intranasal, 1.25 mg): 12.9 ± 5.2 ng·h/mL | AUC(0-t) ([3]; inhaled or intranasal, 1.25 mg): 12.8 ± 5.24 ng·h/mL | Cmax ([3]; inhaled or intranasal, 1.25 mg): 13 ± 6.36 ng/mL | MRT ([3]; inhaled or intranasal, 1.25 mg): 67.8 ± 10.8 min | half-life ([3]; inhaled or intranasal, 1.25 mg): 57 ± 10.8 min | Tmax ([3]; inhaled or intranasal, 1.25 mg, intranasal administration (ZLP-B01), 1.25 mg/dog): 8.4 ± 1.8 min | AUC(0-inf) ([3]; inhaled or intranasal, 2.5 mg): 22.4 ± 12.1 ng·h/mL | AUC(0-t) ([3]; inhaled or intranasal, 2.5 mg): 22.2 ± 12.2 ng·h/mL | Cmax ([3]; inhaled or intranasal, 2.5 mg): 22 ± 13.1 ng/mL | MRT ([3]; inhaled or intranasal, 2.5 mg): 74.4 ± 49.8 min | half-life ([3]; inhaled or intranasal, 2.5 mg): 43.8 ± 13.8 min | Tmax ([3]; inhaled or intranasal, 2.5 mg, intranasal administration (ZLP-B01), 2.5 mg/dog): 8.4 ± 4.2 min | AUC(0-inf) ([3]; inhaled or intranasal, 5 mg): 38 ± 18.5 ng·h/mL | AUC(0-t) ([3]; inhaled or intranasal, 5 mg): 38 ng·h/mL | Cmax ([3]; inhaled or intranasal, 5 mg): 33.3 ng/mL | MRT ([3]; inhaled or intranasal, 5 mg): 90 ± 19.8 min | half-life ([3]; inhaled or intranasal, 5 mg): 68.4 ± 11.4 min | Tmax ([3]; inhaled or intranasal, 5 mg, intranasal administration (ZLP-B01), 5 mg/dog): 12.6 min | Tmax ([3]; inhaled or intranasal, 5 mg, range over dogs, intranasal administration, 5 mg/dog): 3 to 15 min | AUC(0-inf) ([3]; po, 5 mg): 30.7 ± 16.9 ng·h/mL | AUC(0-t) ([3]; po, 5 mg): 30.6 ng·h/mL | Cmax ([3]; po, 5 mg): 25.5 ng/mL | MRT ([3]; po, 5 mg): 100 ± 27.6 min | half-life ([3]; po, 5 mg): 57.6 ± 10.2 min | Tmax ([3]; po, 5 mg, oral administration (marketed tablet, Stilnox), 5 mg/dog): 41.4 min | Tmax ([3]; po, 5 mg, range over dogs, oral administration, 5 mg/dog): 19.8 to 120 min | AUC(0-inf) ([3]; po, 10 mg): 121 ± 64.6 ng·h/mL | AUC(0-t) ([3]; po, 10 mg): 120 ± 64.4 ng·h/mL | Cmax ([3]; po, 10 mg): 128 ± 59.7 ng/mL | MRT ([3]; po, 10 mg): 79.8 ± 18 min | half-life ([3]; po, 10 mg): 59.4 ± 12.6 min | Tmax ([3]; po, 10 mg, oral administration (marketed tablet, Stilnox), 10 mg/dog): 25.8 ± 11.4 min | bound to plasma proteins [4]: about 92%

sodium deoxycholate [1% sodium deoxycholate]
Ciliotoxicity [5]: severe | Optical microscopic observation [5]: no cilia on the mucosa
